Measured values reported in patent publication US10196588B2, “Detergent formulation for dishwashing machine” (Universiti Putra Malaysia (UPM), priority 2012, dated 2019).

Tests used:
[1] = test system: T1 lipase; experiment: Lipase stability test: residual activity of T1 lipase after incubation with detergent components; assay type: biochemical, Geobacillus zalihae strain T1; conditions: for Stability of T1 lipase in the component (in words): incubation in 0.2% (w/v) component, 60° C., 30 min
Description: The compatibility of the T1 lipase with the other components of the formulated detergent was evaluated by incubating the enzyme in 0.2% (w/v) of those components, i.e., surfactants, bleaches, and alkalinity agents in a water bath (Protech, Malaysia) at 60° C. for 30 min. After 30 min, the enzyme was assayed for its residual activity.
J Am Oil Chem Soc. 63(1): p. 89-92]. A cupric acetate pyridine reagent was prepared by mixing 5% (w/v) copper (II) acetate with DI water and adjusting the solution pH to 6.1 with pyridine. The substrate emulsion used consisted of olive oil/50 mM of Glycine-NaOH buffer at pH 9.0 (1:1), which was homogenized using a homogenizer (Heidolph, Germany). […] After 30 min, the reaction was stopped by adding 5 ml isooctane and 1 ml 6 N HCl, and the mixture was vortexed for 30 s and left for 15 min. 4 ml of the upper layer of the mixture, which contained the fatty acids, was transferred to a test tube containing 1 ml of the cupric acetate pyridine reagent, and the mixture was vortexed for 30 s and left for 1 hour. The color of the solution was then evaluated colorimetrically by reading the OD using the Ultraspec 2100 Pro spectrophotometer (Amersham Bioscience, Sweden) at 715 nm. All assays were done in triplicates. 1 unit (U) of lipase activity was defined as the rate of 1 μmol of fatty acid released per minute under standard assay conditions.

[2] = Resulting pH of the alkalinity agents in solution; assay type: physicochemical; conditions: resulting pH of the alkalinity agent in solution
[3] = T1 lipase residual activity after 30 min at 60° C. in 0.2% (w/v) surfactant or bleach, w/o control = 100
[4] = T1 lipase residual activity after 30 min at 60° C. in 0.2% (w/v) alkalinity agent, Glycine-NaOH control = 100

Row | Compound | Relative activity (%) [1, 3] [%] | Stability of T1 lipase in the component (in words) [1] | Relative activity (%) [1, 4] [%] | Stability of T1 lipase in the component (in words) ([1]; listed as carbonate) | pH [2]
1 | CCCCCCCCCCCCCCCC[N+](C)(C)C.[Br-] [CTAB, cetyl trimethylammonium bromide] | 1.9 | strongly destabilized |  |  | 
2 | sodium perborate | 3.4 | strongly destabilized |  |  | 
3 | O=C([O-])[O-].[Na+].[Na+] [Sodium carbonate, sodium carbonate] |  | lowest residual activities | 1 | greatly destabilized | 10.84
4 | CCCCCCCC/C=C\CCCCCCCC(=O)OCCOCC(OCCO)C1OCC(OCCO)C1OCCO (centres unmarked) [Tween 80, polysorbate 80] | 98 | highest stability |  |  | 
5 | O=C([O-])CC(O)(CC(=O)[O-])C(=O)[O-].[Na+].[Na+].[Na+] [Sodium citrate, sodium citrate] |  | did not greatly affect the stability | 48 |  | 8.30
6 | O=P(O)(O)OP(=O)(O)OP(=O)(O)O [Sodium tripolyphosphate, sodium tripolyphosphate] |  | lowest residual activities | 0 |  | 9.60
7 | O=C([O-])O.[Na+] [Sodium bicarbonate, sodium bicarbonate] |  |  | 94 |  | 8.63
8 | O=C([O-])[O-].O=C([O-])[O-].OO.OO.OO.[Na+].[Na+].[Na+].[Na+] [Sodium percarbonate, sodium percarbonate] | 0.3 | strongly destabilized |  |  | 
9 | Polyethylene glycol 300 [PEG 300] | 61 |  |  |  | 
10 | CCCCCCCCCCCCOS(=O)(=O)[O-].[Na+] [SDS, sodium dodecyl sulfate] | 14 | destabilized |  |  | 
